Assay [1] has as its target T1, cytochrome c oxidase (CcO) purified from heart mitochondria (Bos taurus, UniProt P00396+P07471+P68530).
T1 construct: Cytochrome c oxidase was purified from the heart mitochondria of Bos taurus; from tissue; host or cells: bovine heart mitochondria
Particulars: earlier studies on steroids, Triton X-100 and thyroid hormones; ref [47],[48],[49]; read-out: dissociation constant of the complex between DM and BABS; cited from earlier work. An excerpt:
The inhibition is notable by features characteristic of BABS regulatory site ligands such as some steroids and vitamin D [47], Triton Х-100 [48], and thyroid hormones Т3, Т4 [49]. […] The resistance of peroxidase activity is explained by the fact that the BABS ligands block the proton channel K, which is not involved in the p ...

For assay [2], the target named is T1, cytochrome c oxidase (CcO) purified from heart mitochondria. The experiment in a line: Cytochrome oxidase activity of solubilized mitochondrial CcO (oxygen uptake). Format: biochemical. Particulars: for enzyme activation at low concentrations: solubilized CcO from bovine heart mitochondria and from R. sphaeroides, authors' unpublished data.
Assay [3] in a line: Permeabilization of calcein-loaded asolectin liposomes (calcein release). The following applies: 5 μM peptide.
The target of assay [4] is T2, CcO in rat liver mitochondria (Rattus norvegicus, UniProt P00406+P05503).
T2 construct: Rat liver mitochondria were isolated by differential centrifugation; from tissue; host or cells: rat liver mitochondria
T2 sequence (P00406 whole entry, other chains not shown): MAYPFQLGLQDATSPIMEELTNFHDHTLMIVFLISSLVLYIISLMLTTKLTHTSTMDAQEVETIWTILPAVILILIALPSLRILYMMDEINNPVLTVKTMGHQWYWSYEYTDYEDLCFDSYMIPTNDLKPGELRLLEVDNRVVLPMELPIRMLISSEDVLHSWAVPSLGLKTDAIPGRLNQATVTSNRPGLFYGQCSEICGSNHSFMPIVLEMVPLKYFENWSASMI
The experiment in a line: CcO activity in the mitochondrial membrane (respiration of rat liver mitochondria). In kind it is biochemical. Particulars: 100 μM peptide added in the course of respiration.

Where “and” joins values, the source holds several entries; their conditions need not be identical. Equal entries are not always repeated. Entries after “also recorded” stand apart in the source; their conditions may differ. Where two headings read alike, the source gives them in different places.

With `CCCCCCCCCCCCO[C@@H]1O[C@H](CO)[C@@H](O[C@H]2O[C@H](CO)[C@@H](O)[C@H](O)[C@H]2O)[C@H](O)[C@H]1O` [DM, dodecyl-maltoside, reference compound], the Kd in assay [1] is 1000 to 1500 µM; in assay [2] (dissociation constant of the enzyme-DM complex in the absence of P4 (Kc), solubilized mitochondrial CcO, X-axis intercept of Ki(app) for P4 versus [DM]) it was 500 µM and ~500 µM.

Consider `C[C@H](CCC(=O)O)[C@H]1CC[C@H]2[C@@H]3[C@H](O)C[C@@H]4C[C@H](O)CC[C@]4(C)[C@H]3C[C@H](O)[C@]12C` [cholate, reference compound], for which, in assay [2], the “enzyme activation at low concentrations” value is listed as 1.5–2 fold.

Turning to `C[C@H](CCC(=O)O)[C@H]1CC[C@H]2[C@@H]3CC[C@@H]4C[C@H](O)CC[C@]4(C)[C@H]3C[C@H](O)[C@]12C` [deoxycholate, reference compound], in assay [2], the “enzyme activation at low concentrations” value is 1.5–2 fold. The “maximum activation of CcO” value in assay [2] (solubilized mitochondrial CcO, 1 mM DM, 1.2 mM deoxycholate) is “approximately twice”.

Take Ac-STKLWEMLVELGNMDKAVKLWRKLSR-NH2 [A4]: the “time to reach the 100% level of calcein release” value in assay [3] (100% = after Triton X-100 0.1%) is recorded as 3 min. Further, the “t1/2 of fluorescence increase (calcein release)” value in assay [3] (liposomes 0.1 mg lipid/mL, 20 mM MOPS/Tris pH 7.3, 0.2 mM EDTA, fluorescence 520 nm (excitation 490 nm)) was about 18 s. Further, the “effect on respiration rate of mitochondria” value in assay [4] is listed as “complete inhibition”.

For Ac-WVGMALENRKLKKDRLKVLKMLRWT-NH2 [A1], in assay [3], the “calcein release compared with P4 and A4” value is “more than two orders of magnitude slower”; the “rate of fluorescence increase (calcein release)” value is reported as < 1 % of the final level per 1 min. In assay [4], the “effect on respiration rate of mitochondria” value is “does not reduce the rate of enzyme activity; also recorded: almost does not change”. Besides, in assay [2] (solubilized bovine heart CcO 20 nM, oxygen uptake, Clark electrode, 25 °C, BM 50 mM Hepes/Tris pH 7.6, 50 mM KCl, 1 mM (0.05%) DM, 5 mM ascorbate, 0.1 mM TMPD, 10 μM cytochrome c, fit by Equation (1), read-out: Inhibition of CcO, Solubilized, Ki(app)), the Ki was 0.0208 mM.
